Laboratory results reported in patent US10550105B2 (Ribon Therapeutics Inc., priority 2018, dated 2020).

These compounds were tested against PARP7 (Homo sapiens (Human), UniProt Q7Z3E1) (assay: Enzymatic assay for inhibition of PARP7: TR-FRET displacement of biotinylated Probe A from the TIPARP active site). Settings: Table A-1.
Chain of PARP7 (Q7Z3E1 whole entry): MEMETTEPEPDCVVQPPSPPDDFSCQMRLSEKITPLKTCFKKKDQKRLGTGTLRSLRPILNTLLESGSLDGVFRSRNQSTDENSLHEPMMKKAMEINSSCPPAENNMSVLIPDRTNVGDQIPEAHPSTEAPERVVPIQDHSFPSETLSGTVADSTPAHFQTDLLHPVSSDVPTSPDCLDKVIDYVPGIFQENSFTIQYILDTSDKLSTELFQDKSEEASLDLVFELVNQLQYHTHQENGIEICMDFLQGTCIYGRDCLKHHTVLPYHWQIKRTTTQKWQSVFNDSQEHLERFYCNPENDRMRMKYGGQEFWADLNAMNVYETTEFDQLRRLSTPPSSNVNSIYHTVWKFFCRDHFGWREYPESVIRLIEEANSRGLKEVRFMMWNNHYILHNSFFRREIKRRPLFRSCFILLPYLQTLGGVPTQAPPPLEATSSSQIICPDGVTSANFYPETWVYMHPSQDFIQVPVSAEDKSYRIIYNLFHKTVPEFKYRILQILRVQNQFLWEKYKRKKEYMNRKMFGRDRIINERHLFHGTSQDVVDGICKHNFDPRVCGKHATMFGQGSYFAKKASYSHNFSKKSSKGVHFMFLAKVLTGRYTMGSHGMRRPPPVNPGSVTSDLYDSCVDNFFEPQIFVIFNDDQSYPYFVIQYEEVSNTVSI
Format: binding
Outline: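 Displacement of biotinylated Probe A from TIPARP was measured as the 665/615 nm time-resolved FRET ratio (excitation 320 nm, 90 μs delay) after a further 30 min at 25 °C. Inhibition across compound concentrations was fitted by dose-response regression, with the Hill slope free or fixed at 1 (3-parameter fit).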
For `COc1ccc2c(c1)CN(c1cn[nH]c(=O)c1Cl)C2` [Example 155, 4-Chloro-5-(5-methoxyisoindolin-2-yl)pyridazin-3(2H)-one], the IC50 was 100 to 1000 nM.
`CN(CCOCCCN1CCN(c2ccc(C#N)cn2)CC1)c1cn[nH]c(=O)c1C(F)(F)F` [Example 526, 6-[4-[3-(2-[Methyl[6-oxo-5-(trifluoromethyl)-1,6-dihydropyridazin-4-yl]amino]ethoxy)propyl]piperazin-1-yl]pyridine-3-carbonitrile] gave an IC50 of 100 to 1000 nM.
With `CO[C@H](C)[C@@H](COCCC(=O)N1CCN(c2ncc(C(F)(F)F)cn2)CC1)Nc1cn[nH]c(=O)c1C(F)(F)F` [Example 607, 5-[[(2R,3R)-3-Methoxy-1-(3-oxo-3-[4-[5-(trifluoromethyl)pyrimidin-2-yl]piperazin-1-yl]propoxy)butan-2-yl]amino]-4-(trifluoromethyl)-2,3-dihydropyridazin-3-one] the IC50 was < 100 nM.
With `N#Cc1cnc(N2CCN(C(=O)CCOC[C@@H]3CCCN3c3cn[nH]c(=O)c3C(F)(F)F)CC2)cn1` [Example 474, (S)-5-(4-(3-((1-(6-Oxo-5-(trifluoromethyl)-1,6-dihydropyridazin-4-yl)pyrrolidin-2-yl)methoxy)propanoyl)piperazin-1-yl)pyrazine-2-carbonitrile] the IC50 was < 100 nM.
For `O=c1[nH]ncc(N2Cc3cccc(OCCO)c3C2)c1Br` [Example 168, 4-Bromo-5-(4-(2-hydroxyethoxy)isoindolin-2-yl)pyridazin-3(2H)-one], the IC50 was 100 to 1000 nM.
Work on `O=C(c1cccc(OCC2CCCN2c2cn[nH]c(=O)c2C(F)(F)F)c1)N1CCn2c(nnc2C(F)(F)F)C1` (stereo not shown) [Example 436, 4-(Trifluoromethyl)-5-(2-((3-(3-(trifluoromethyl)-5,6,7,8-tetrahydro-[1,2,4]triazolo[4,3-a]pyrazine-7-carbonyl)phenoxy)methyl)pyrrolidin-1-yl)pyridazin-3(2H)-one] yielded an IC50 of 100 to 1000 nM.
In the case of `C[C@@H](COc1cn[nH]c(=O)c1C(F)(F)F)OCCC(=O)N1CCN(c2ncc(C(F)(F)F)cn2)CC1` (single isomer, unassigned) [Example 544 Isomer C], the IC50 is reported as < 100 nM.
For `COC[C@@H](COCCC(=O)N1CCN(c2ccc(Cl)cn2)CC1)Nc1cn[nH]c(=O)c1C(F)(F)F` [Example 593, 5-[[(2S)-1-[3-[4-(5-Chloropyridin-2-yl)piperazin-1-yl]-3-oxopropoxy]-3-methoxypropan-2-yl]amino]-4-(trifluoromethyl)-2,3-dihydropyridazin-3-one], the IC50 was < 100 nM.
For `O=C(C[C@@H]1CC[C@H](COc2cn[nH]c(=O)c2Cl)O1)N1CCN(c2ncc(Cl)cn2)CC1` (single isomer, unassigned) [Example 566 Isomer D], the IC50 was ≥ 1000 nM.
`O=C(COC[C@@H]1CCCN1c1cn[nH]c(=O)c1C(F)(F)F)N1CCN(c2ccccn2)CC1` [Example 448, (S)-5-(2-((2-Oxo-2-(4-(pyridin-2-yl)piperazin-1-yl)ethoxy)methyl)pyrrolidin-1-yl)-4-(trifluoromethyl)pyridazin-3(2H)-one] was tested, and the IC50 was 100 to 1000 nM.
For `O=c1[nH]ncc(N2Cc3ccncc3C2)c1Cl` [Example 152, 4-Chloro-5-(1,3-dihydro-2H-pyrrolo[3,4-c]pyridin-2-yl)pyridazin-3(2H)-one], the IC50 was 100 to 1000 nM.
`O=c1[nH]ncc(N2C[C@@H]3CCCN[C@@H]3C2)c1C(F)(F)F` [Example 498, 5-((4aS,7aS)-Octahydro-6H-pyrrolo[3,4-b]pyridin-6-yl)-4-(trifluoromethyl)pyridazin-3(2H)-one] was tested, and the IC50 was ≥ 1000 nM.
In the case of `N#Cc1ccc(N2CCN(C(=O)c3ccnc(OC[C@@H]4c5ccccc5CN4c4cn[nH]c(=O)c4C(F)(F)F)n3)CC2)nc1` (single isomer, unassigned) [Example 38 Isomer A], the IC50 is reported as < 100 nM.
For `O=C(C[C@@H]1CC[C@H](COc2cn[nH]c(=O)c2C(F)(F)F)O1)N1CCN(c2ccc(C(F)(F)F)cn2)CC1` (single isomer, unassigned) [Example 545 Isomer D], the IC50 was < 100 nM.
For `N#Cc1ccc(N2CCN(C(=O)CCOC[C@H](Cc3ccccc3)Nc3cn[nH]c(=O)c3C(F)(F)F)CC2)nc1` [Example 515B], the IC50 was < 100 nM.
`N#Cc1ccc(NCCC(=O)Nc2cccc(OCC3c4ccccc4CN3c3cn[nH]c(=O)c3C(F)(F)F)c2)nc1` (stereo not shown) [Example 394, 3-((5-Cyanopyridin-2-yl)amino)-N-(3-((2-(6-oxo-5-(trifluoromethyl)-1,6-dihydropyridazin-4-yl)isoindolin-1-yl)methoxy)phenyl)propanamide] was tested, and the IC50 was < 100 nM.
For `N#Cc1ccc(N2CCN(C(=O)[C@H]3C[C@@H](OC[C@H]4CCN(c5cn[nH]c(=O)c5C(F)(F)F)C4)C3)CC2)nc1` [Example 121B, 6-(4-((1S,3S)-3-((1-(6-oxo-5-(trifluoromethyl)-1,6-dihydropyridazin-4-yl)pyrrolidin-3-yl)methoxy)cyclobutanecarbonyl)piperazin-1-yl)nicotinonitrile], the IC50 was < 100 nM.
For `CC(Nc1cccc2c1CN(c1cn[nH]c(=O)c1C(F)(F)F)C2)c1ccncc1` (stereo not shown) [Example 271, 5-(4-((1-(Pyridin-4-yl)ethyl)amino)isoindolin-2-yl)-4-(trifluoromethyl)pyridazin-3(2H)-one], the IC50 was < 100 nM.
With `O=c1[nH]ncc(N2Cc3cccnc3C2)c1C(F)(F)F` [Example 236, 5-(5,7-Dihydro-6H-pyrrolo[3,4-b]pyridin-6-yl)-4-(trifluoromethyl)pyridazin-3(2H)-one] the IC50 was < 100 nM.
With `CC[C@@H](COCCC(=O)N1CCN(c2ncc(C#N)cn2)CC1)Oc1cn[nH]c(=O)c1C(F)(F)F` [Example 592, 2-(4-[3-[(2S)-2-[[6-oxo-5-(trifluoromethyl)-1,6-dihydropyridazin-4-yl]oxy]butoxy]propanoyl]piperazin-1-yl)pyrimidine-5-carbonitrile] the IC50 was < 100 nM.
In the case of `CC(=O)N1CCC(NCc2cc3c(cc2F)CN(c2cn[nH]c(=O)c2C(F)(F)F)C3)CC1` [Example 24, 5-(5-[[(1-acetylpiperidin-4-yl)amino]methyl]-6-fluoro-2,3-dihydro-1H-isoindol-2-yl)-4-(trifluoromethyl)-2,3-dihydropyridazin-3-one], the IC50 is reported as < 100 nM.
For `C[C@@H](COCCC(=O)N1CCN(c2cnc(C(F)(F)F)cn2)CC1)Oc1cn[nH]c(=O)c1C(F)(F)F` [Example 662, (S)-5-((1-(3-Oxo-3-(4-(5-(trifluoromethyl)pyrazin-2-yl)piperazin-1-yl)propoxy)propan-2-yl)oxy)-4-(trifluoromethyl)pyridazin-3(2H)-one], the IC50 was < 100 nM.
In the case of `CC(=O)N1CCN(C(=O)c2cccc(OC[C@H]3c4ccccc4CN3c3cn[nH]c(=O)c3C(F)(F)F)c2)CC1` [Example 406, (R)-5-(1-((3-(4-Acetylpiperazine-1-carbonyl)phenoxy)methyl)isoindolin-2-yl)-4-(trifluoromethyl)pyridazin-3(2H)-one], the IC50 is reported as ≥ 1000 nM.
For `O=C(C[C@H]1CC[C@H](CNc2cn[nH]c(=O)c2C(F)(F)F)O1)N1CCN(c2ncc(Cl)cn2)CC1` (single isomer, unassigned) [Example 567 Isomer D], the IC50 was < 100 nM.
`C[C@@H](COCCC(=O)N1CCN(c2ncc(C(C)(C)C)cn2)CC1)Nc1cn[nH]c(=O)c1C(F)(F)F` [Example 623, (S)-5-((1-(3-(4-(5-(Tert-butyl)pyrimidin-2-yl)piperazin-1-yl)-3-oxopropoxy)propan-2-yl)amino)-4-(trifluoromethyl)pyridazin-3(2H)-one] was tested, and the IC50 was < 100 nM.
